Results reported in US20150344535A1, “NEUROTROPHIN-TYROSINE KINASE RECEPTOR SIGNALING” (THE UNIVERSITY OF QUEENSLAND, priority 2012, published 2015).
Entries after “also recorded” stand apart in the source; their conditions may differ.

Assays:
PC12 cells [1] = test: PC12 cell neurite outgrowth in response to NGF; type: cell-based
Protocol: To assess the effect of p75^NTR constructs (FIG. 2) or c29 peptide on TrkA-mediated neuritogenesis, transfected PC12 cells were grown in the presence of 100 ng/ml NGF for 3 days, with fresh medium and NGF treatments added on day 2. Cells were then imaged live on an Olympus (IX81) microscope fitted with a CO2 atmospheric chamber, using analySIS software. Four random images of 80-100 cells were taken for each treatment condition and images were determined by measuring polygon neurite length of all cells in each image. Data analysis was performed using Graphpad PRISM.
Once PC12 cells are fully differentiated, they become dependent on NGF for survival (Greene, 1978), but can survive if grown in the presence of lower concentrations of NGF (Greene and Tischler, 1976). To determine if c29 could potentiate TrkA-mediated signals, PC12 cells were cultured in the presence of NGF concentrations ranging from 1-100 ng/ml for 5 days, following serum starvation and pre-incubation with c29, scrambled control peptide or no peptide (FIG. 5A). […] Peptides (1 μM) were added to the cultures every 48 hours at the time of NGF addition and medium exchange.

[2] = Fear extinction / return of fear in mice; type: in vivo, mouse; details: female mice, infusion into infralimbic prefrontal cortex, VEH RET vs C29 RET, FIG. 12
Excerpt: Baker-Andresen et al. Learn Mem. 2013 Apr. 15; 20(5):237-40.
Following fear conditioning (Example 17), exposure to the tone without the shock is termed extinction (removal of the memory).
Researchers can time the duration of this response. Repeated exposure to the tone without the shock is termed extinction (removal of the memory).

PC12 cells [3] = test: PC12 cell viability / NGF withdrawal (acid phosphatase assay); type: cell-based
Protocol: To investigate the role of c29 peptide in NGF-withdrawal assays, NGF-containing medium in PC12 cultures was exchanged for NGF-free medium on day 3, and cells were treated with c29 or scrambled peptide and reduced NGF concentrations (1 ng or 10 ng/ml). Treated cells were cultured for 2 days and cell viability was determined via quantification of cytosolic acid phosphatase enzyme activity as described in (Yang et al., 1996).
Briefly, cells were grown in 96-well plates at densities of 5000 cells per well. The culture medium in treated cell assays was removed from and each well was washed once with 200 μl phosphate buffered saline (PBS, pH 7.2). To each well, 100 μl of sodium acetate and p-nitrophenyl phosphate buffer containing 0.1 M sodium acetate (pH 5.0), 0.1% Triton X-100, and 5 mM p-nitrophenyl phosphate was added. The plates were placed in a 37° C. incubator for 30 minutes. The reaction was stopped with the addition of […] of 1 N NaOH, and colour development absorbance was assayed at 405 nm using a microplate reader (POLARstar OPTIMA, USA). […] This background value was typically 0.03-0.1 absorbance units.

TrkA = test: Biotinylated peptide pull down of TrkA; type: binding; details: lysate of transfected HEK293 cells, FIG. 4D
Protocol: (§1) For peptide pull down assays, the biotinylated c29 or LC1 control peptides were incubated with protein A-sepharose beads or Dynabeads MyOne Streptavidin T1 (Invitrogen) overnight at 4° C. Cell lysates were then added to the peptide-protein A-sepharose complex or Dynabeads MyOne Streptavidin T1 and incubated for 3 hours at 4° C. Peptide-receptor complexes were washed extensively with RIPA lysis buffer and eluted by boiling in Laemmli sample buffer. For p75^NTR construct immunoprecipitations, HEK293 cells were treated with NGF at 50 ng/ml for 10 minutes 48 hours after transfection with 1 μg DNA per well. Cells were immediately harvested in ice-cold phosphate buffered saline (PBS) and washed twice, then lysed in 1 ml of lysis buffer. Cell lysates were pre-cleared in 75 μl (1:2) protein-G sepharose: PBS by rotation end-over-end for 2 hours at 4′C. Lysates were then incubated with 3-5 μg antibody, either mouse-anti-YFP/GFP (Roche) or rabbit-anti-human p75^NTR intracellular domain antibody (Promega), and rotated end-over-end for 2 hours at 4° C.
Immunoprecipitation was performed by the addition of 75 μl (1:2) protein-G sepharose: PBS and incubation end-over-end for 16 hours at 4° C. The immunoprecipitate was washed 4 times with 1 ml of PBS then eluted in 60 μl 2×LDS sample buffer. For immunoblotting, samples were boiled for 5 minutes, separated by SDS-PAGE and transferred onto nitrocellulose membranes, then western blotted using standard protocols (see Example 1 for antibodies used).
The c29 peptide was labelled with biotin and attached to a sepharose bead column. Lysates from cells was passed over the column followed by several wash steps. The proteins that bound to the c29 peptide (proteins that are pulled down) were eluted from the column with SDS buffer and separated in size by SDS-PAGE electrophoresis. The gel was Western blotted and the membrane probed with antibodies to proteins of interest.

HEK293 cells = test: NGF-FITC binding by flow cytometry, non-transfected HEK293 cells
Protocol: Background fluorescence of HEK293 cells was non-transfected cells (±c29 or scrambled peptide treatment) treated with 26 nM NGF-FITC. For PC12 cells, the control population was cells that had not been treated with NGF-FITC. Analysis of real-time NGF-FITC receptor binding experiments was performed on 550,000-600,000 cells at 4° C. in serum free NB medium and binding kinetics were calculated from raw data files compressed to 50,000 binding events using FlowJo and MatLab Software. Data was plotted with the use of GraphPad Prism.
Only NGF-FITC preparations that promoted equivalent neurite outgrowth of PC12 cells to that of unlabelled NGF were used in binding experiments. To investigate NGF binding, PC12 or transfected HEK293 cells were serum starved for 4 hours, harvested, washed with Dulbecco's Modified Eagle Medium (DMEM), and counted. When used, c29 or scrambled peptide were added to cultures for the third hour of the serum starvation procedure. […] For binding competition assays, following 1 hour in NGF-FITC, cells were washed with ice-cold PBS containing 0.1% normal bovine serum and incubated on ice with unlabeled NGF at concentrations ranging from 100 pM to 10 μM for 30 minutes, then washed twice in PBS before being analysed on a BD Flow Cytometer FACS Scan (Becton-Dickinson).

[4] = test system: primary E13 motor neurons; test: Primary motor neuron survival and growth factor withdrawal; type: cell-based, mouse
Protocol: Briefly, pregnant mothers were sacrificed by cervical dislocation and the uterus removed by Caesarean section and placed in Neurobasal medium. Lumbar spinal cords were dissected from E13 embryos on ice. Batches of 2 or 3 spinal cords were incubated in 1 mL 0.05% trypsin-ETDA for 10 minutes at 37° C. in 15 mL tubes. To prevent further trypsinisation, 0.14 mg/mL trypsin inhibitor solution was added and the tissue centrifuged at 100×g for 7 minutes, without acceleration or deceleration. The supernatant was removed and the spinal cord tissue was resuspended in 1 mL of Neurobasal Medium (NB). In order to obtain a single cell suspension, each batch of 2-3 spinal cords was agitated manually for 2 minutes. The suspension was allowed to settle and the supernatant collected after being filtered through a 100 μm sieve. The remaining tissue was further triturated ˜8 times through a P200 pipette and filtered through a 100 μm sieve. The combined supernatants were then separated by centrifugation on a 5 ml cushion of 9% (vol/vol) OptiPrep® gradient in NB containing 2% B27 supplement for 45 min at 850×g, without acceleration or deceleration. To prevent toxicity following Optiprep® separation, the layer containing MNs was harvested into 10 mL of NB containing 10% HS, and the cell suspension was centrifuged at 900×g for 7 minutes at 24° C., without acceleration or deceleration. The supernatant was removed and the cell pellet was resuspended in 1 mL of NB medium.
The number of viable motor neurons was counted on a haemocytometer using 0.08% trypan blue and neurons plated in 4-well culture dishes at a density of 3,000 cells per well in 100 μL NB containing 10% HS. […] Primary motor neurons were maintained at 37° C. in a humidified atmosphere with 5% CO2 and culture medium was replaced at day 1 and 3. Phase contrast images of motor neurons were taken using an Olympus (6IX81) microscope after motor neurons were grown in vitro for up to 7 days.
To assess the effects of c29 peptide on motor neuronal survival in limiting growth factor concentrations, isolated spinal motor neurons were plated and treated with 0.01, 0.1 or 1.0 ng/ml of BDNF in the presence of 1 μm PTD4-linked c29 or scrambled peptide, and cultured for 5 days with the addition of fresh BDNF and peptide treatments on day 2 and 4. For growth factor-withdrawal assays, following initial plating in 1 ng/ml of BDNF, CNTF or GDNF, cultures were washed four times with serum-free Neurobasal (NB) medium, after which the medium was replaced with medium containing 1-0.01 ng/ml of BDNF, CNTF or GDNF and 1 μM PTD4-linked c29 or scrambled peptides, as indicated. For assays investigating the effect of c29 on NGF-mediated motor neuron death, cultures were grown in 1 ng/ml BDNF, CNTF or GDNF for 1 day, before being treated with 100 ng/ml 2.5S NGF in and 1 μM PTD4-linked c29 or scrambled peptide, as indicated. Motor neurons were counted on day 1, and to assess the effects of various treatments days 3 and 5 (4 separate 10×10 grid fields of each well per experiment).

TrkB = target: T1, TrkB (Mus musculus, UniProt P15209); test: Biotinylated peptide pull down of TrkB from NSC-34 cells; type: binding; details: NSC-34 cell lysate, FIG. 4D
T1 construct: endogenous in cells; host or cells: NSC-34
T1 sequence (P15209 32-476 isoform P15209-2 limits assumed): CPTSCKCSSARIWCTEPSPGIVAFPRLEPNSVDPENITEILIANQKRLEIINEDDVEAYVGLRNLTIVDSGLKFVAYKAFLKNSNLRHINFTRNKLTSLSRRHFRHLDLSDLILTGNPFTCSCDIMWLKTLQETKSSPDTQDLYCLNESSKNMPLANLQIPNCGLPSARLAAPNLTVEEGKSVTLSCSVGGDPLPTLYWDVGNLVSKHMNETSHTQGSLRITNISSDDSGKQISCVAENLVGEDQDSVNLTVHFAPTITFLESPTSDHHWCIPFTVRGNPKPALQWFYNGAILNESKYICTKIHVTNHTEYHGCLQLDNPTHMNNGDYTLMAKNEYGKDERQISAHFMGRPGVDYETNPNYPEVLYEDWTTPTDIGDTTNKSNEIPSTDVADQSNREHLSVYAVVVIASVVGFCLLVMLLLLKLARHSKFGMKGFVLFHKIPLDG
Protocol: as §1
Immunoprecipitation was performed by the addition of 75 μl (1:2) protein-G sepharose: PBS and incubation end-over-end for 16 hours at 4° C. The immunoprecipitate was washed 4 times with 1 ml of PBS then eluted in 60 μl 2×LDS sample buffer. […]

KRWNSCKQNKQGANSRPVNQTPPPEGEKL (c29- Fragment of p75ICD) [29 amino acid peptide of the p75NTR juxtamembrane Chopper domain; delivered to cells linked to PTD4 or disulfide-linked carrier]
neurite outgrowth (length) (PC12 cells [1]; 1 ng/ml NGF, day 5, peptide 1 μM): 20 μm | neurite length vs scrambled peptide or NGF alone (PC12 cells [1]; 1 ng/ml and 10 ng/ml NGF, day 5, peptide 1 μM): significantly longer neurites | median neurite length (PC12 cells [1]; 10 ng/ml NGF, day 5, peptide 1 μM): 60 μm | median neurite outgrowth (PC12 cells [1]; 100 ng/ml NGF, day 5, peptide 1 μM, vs untreated cultures): no difference | neurite growth (PC12 cells [1]; fragments incubated with PC12 cells and NGF, FIG. 16): stimulated neurite growth | return of fear [2]: prevents the return of fear; also recorded: blocked the return of fear | survival rate of cells (PC12 cells [3]; 1 ng/ml NGF after differentiation in 100 ng/ml NGF): significantly increased the survival rate | cell survival (PC12 cells [3]; absence of NGF): did not affect on cell survival | basal PC12 cell growth and proliferation (PC12 cells [3]; medium lacking NGF): no effect on basal PC12 cell growth and proliferation | pull down of TrkA (TrkA): able to pull down TrkA | fluorescence of nontransfected cells incubated with peptide and NGF-FITC (HEK293 cells): only background levels of fluorescence | NGF-induced cell death of motor neurons ([4]; 1 ng/ml BDNF plus NGF): significantly protected from NGF-induced cell death | neuronal survival after BDNF withdrawal ([4]; 10-fold lower BDNF, vs scrambled peptide): significantly increased neuronal survival | survival of motor neurons following CNTF or GDNF withdrawal ([4]; 10-fold lower CNTF or GDNF): no effect on the survival of motor neurons | motor neuron survival ([4]; BDNF 0.01-1.0 ng/ml, after 5 days, vs control cultures): increased survival | pull down of endogenously expressed TrkB (TrkB): able to pull down endogenously expressed TrkB
